Experimental findings from ChEMBL document CHEMBL1141583, “Chemotherapeutic bone-targeted bisphosphonate prodrugs with hydrolytic mode of activation” (Bioorg Med Chem Lett, 2008) are described below.

Each structure is given as a SMILES string.

One data set deals with Jurkat. Put plainly: Growth inhibition of human Jurkat cells after 96 hrs. The class given is functional, cell-based.
Data set [1] in a line: Chemical stability in phosphate buffer saline at pH 7.4. The class given is physicochemical.

Turning to `CC[C@@]1(OC(=O)CCC(P(=O)(O)O)P(=O)(O)O)C(=O)OCc2c1cc1n(c2=O)Cc2cc3ccccc3nc2-1` [CAMDRONATE], half-maximal inhibition in the data set with Jurkat (IC50) was put at 21 nM.

Take `CC[C@@]1(O)C(=O)OCc2c1cc1n(c2=O)Cc2cc3ccccc3nc2-1` [CAMPTOTHECIN]: 1.4 nM corresponded to half-maximal inhibition in the data set on Jurkat (IC50).

As for `COc1cc(COC(=O)NC(Cc2c[nH]c3ccccc23)C(=O)O)cc(OC)c1OC(=O)OCCCCCCC(P(=O)(O)O)P(=O)(O)O` (stereo not drawn) [TRYPDRONATE], in data set [1], the half-life (usually how long it takes for the measured level to halve) is 90 h.
